Data reported in US6737418B2, “Aryl substituted pyrazoles, imidazoles, oxazoles, thiazoles and pyrroles, and the use thereof” (Euro-Celtique S.A., priority 1999, dated 2004).

Columns and labels:
[1] = molecular target: T1, hSkM1 isoform of Na+ channels (Homo sapiens, UniProt P35499); test: Electrophysiological Assay 1: whole-cell patch-clamp of Na+ currents in HEK-293 cells expressing hSkM1; format: cell-based; details: for Ki: HEK-293 cells stably expressing hSkM1, concentration that produces half maximal inhibition
T1 construct: expressed in transfected cells
T1 sequence (P35499 whole entry, canonical isoform): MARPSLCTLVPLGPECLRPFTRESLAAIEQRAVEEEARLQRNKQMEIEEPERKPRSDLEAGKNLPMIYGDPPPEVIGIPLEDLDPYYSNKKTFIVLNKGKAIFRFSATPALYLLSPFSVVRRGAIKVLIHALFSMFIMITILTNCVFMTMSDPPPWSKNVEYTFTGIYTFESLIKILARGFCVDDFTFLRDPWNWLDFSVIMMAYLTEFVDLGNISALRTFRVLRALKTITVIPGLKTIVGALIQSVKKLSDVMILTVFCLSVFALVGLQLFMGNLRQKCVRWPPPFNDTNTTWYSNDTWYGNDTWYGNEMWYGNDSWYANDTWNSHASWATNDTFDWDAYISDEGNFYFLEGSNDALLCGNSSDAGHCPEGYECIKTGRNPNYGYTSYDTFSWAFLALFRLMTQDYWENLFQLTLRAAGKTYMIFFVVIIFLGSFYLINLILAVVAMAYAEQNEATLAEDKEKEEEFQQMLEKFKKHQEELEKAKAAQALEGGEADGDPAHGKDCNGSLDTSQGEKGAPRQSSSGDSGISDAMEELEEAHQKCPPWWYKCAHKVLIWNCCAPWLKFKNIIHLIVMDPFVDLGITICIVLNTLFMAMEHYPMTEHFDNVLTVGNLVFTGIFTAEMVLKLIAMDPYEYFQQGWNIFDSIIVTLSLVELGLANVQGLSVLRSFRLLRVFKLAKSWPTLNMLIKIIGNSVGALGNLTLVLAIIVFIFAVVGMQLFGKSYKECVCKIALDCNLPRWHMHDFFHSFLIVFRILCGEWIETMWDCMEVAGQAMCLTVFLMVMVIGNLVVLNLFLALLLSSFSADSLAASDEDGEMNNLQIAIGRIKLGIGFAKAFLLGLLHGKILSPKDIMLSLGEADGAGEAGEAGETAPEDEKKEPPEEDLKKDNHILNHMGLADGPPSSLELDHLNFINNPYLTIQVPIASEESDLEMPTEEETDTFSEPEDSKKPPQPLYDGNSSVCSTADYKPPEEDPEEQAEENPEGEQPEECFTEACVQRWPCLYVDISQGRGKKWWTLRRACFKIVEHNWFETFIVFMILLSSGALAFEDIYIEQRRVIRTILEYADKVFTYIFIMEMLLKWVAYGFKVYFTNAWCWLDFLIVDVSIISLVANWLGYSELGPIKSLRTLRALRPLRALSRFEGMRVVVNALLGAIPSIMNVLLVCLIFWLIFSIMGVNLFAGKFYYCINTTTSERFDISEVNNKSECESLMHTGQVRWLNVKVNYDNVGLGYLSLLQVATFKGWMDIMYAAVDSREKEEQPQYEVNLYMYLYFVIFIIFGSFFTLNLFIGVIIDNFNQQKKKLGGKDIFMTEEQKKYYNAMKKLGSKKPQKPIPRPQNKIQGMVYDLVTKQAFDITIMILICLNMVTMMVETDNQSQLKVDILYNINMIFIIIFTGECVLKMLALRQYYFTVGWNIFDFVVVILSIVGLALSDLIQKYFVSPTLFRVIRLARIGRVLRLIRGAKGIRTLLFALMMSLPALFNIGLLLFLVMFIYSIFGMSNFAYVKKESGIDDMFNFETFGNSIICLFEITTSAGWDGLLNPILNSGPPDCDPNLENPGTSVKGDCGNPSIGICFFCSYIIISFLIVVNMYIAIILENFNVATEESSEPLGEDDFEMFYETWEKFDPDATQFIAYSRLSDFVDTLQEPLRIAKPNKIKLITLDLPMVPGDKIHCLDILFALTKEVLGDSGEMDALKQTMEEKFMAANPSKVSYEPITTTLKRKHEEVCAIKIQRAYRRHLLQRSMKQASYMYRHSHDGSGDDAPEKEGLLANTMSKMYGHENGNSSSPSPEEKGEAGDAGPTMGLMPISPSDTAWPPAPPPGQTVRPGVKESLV
Description: Cell preparation: HEK-293 cells stably expressing the hSkM1 isoform of Na^+ channels (generous gift from Dr. A. L. George, Vanderbilt University Medical School) were cultured using standard techniques, as described previously (Verdoorn, T. A, et al., Neuron 4:919-928 (1990)). For electrophysiology, cells were plated onto 35 mm Petri dishes (pre-coated with poly-D-lysine) at a density of 1:40 on the day of re-seeding from confluent cultures. Our experience has been that cells are suitable for recordings for 2-3 days after plating.
Patch-clamp recordings of voltage-sensitive Na^+ currents: Whole-cell voltage-clamp recordings were made using conventional patch-clamp techniques (Hamill et al., Pfluegers Arch. 391:85-100 (1981)) with an Axopatch 200A amplifier (Axon Instruments, Foster City, Calif.). […] The recording chamber was continuously superfused with the external solution (150 mM NaCl, 5.4 mM KCl, 1.8 mM CaCl2, 1 mM MgCl2, 10 mM HEPES, 10 mM glucose, pH 7.4 (NaOH)) at a speed of about 1 mL/min. Recording pipettes were pulled from thick-walled capillaries (WPI, Sarasota, Fla.) and fire-polished. The pipette resistances ranged from 1 to 3 MΩ when the pipettes were filled with internal solution containing (in mM): 110 CsF, 10 NaCl, 5 MgCl2, 11 EGTA, 10 HEPES, pH adjusted to 7.4 with CsOH. Osmolality was set with a difference of 15-20 mmol/kg between external and internal solutions (lower inside the cell). Drugs and intervening wash-outs were applied through a linear array of flow pipes (Drummond Microcaps, 2 μL, 64-mm length). Compounds are dissolved in dimethylsulfoxide (DMSO) to make a 30 mM stock solution, which was subsequently diluted into the external solution to give final concentrations of 0.1-100 μM. At the highest (1%) concentration, DMSO inhibited the size of Na^+ current only slightly. Currents were recorded at room temperature (22-25° C.), filtered at 5 kHz with an active 8-pole Bessel filter (Frequency Devices, Haverhill, Mass.), digitized at 10-50 μs intervals, and stored using Digidata 1200 analog/digital interface with Pclamp6/Clampex software (Axon Instruments). Series resistance was cancelled typically by ˜75% when necessary. The inhibitory potency of drugs was assessed by measuring reductions in the peak amplitude of Na^+ currents induced by increasing concentrations of compounds tested. Na^+ currents were elicited by stepping membrane voltage from holding potentials over the range −100 mV to −50 mV, to a pulse potential of −10 mV. The test pulse duration was 5-10 msec, repeated at a frequency≦1 Hz. Concentration-inhibition curves were fitted with equation 1:
I/Icontrol=1/(1+([compound]/IC50)) Eq. 1
where Icontrol is the maximal Na^+ current in the absence of antagonist, [compound] is the drug concentration, and IC50 is the concentration of compound that produces half maximal inhibition.
The apparent antagonist dissociation constant (Kd) of this compound for inactivated sodium channels is ˜8 nM.
The Ki (the concentration of a compound that produces half maximal inhibition) value for 3-[4-(4-fluorophenoxy)phenyl]-1H-pyrazole-1-carboxamide and other tested compounds are presented in Table 2.

[2] = test system: maximal electroshock-induced seizures (MES); test: Maximum electroshock seizure test (MES), oral administration to mice; format: in vivo; details: 30 minutes before the test, dose protecting 50% of animals; for ED50: Mus musculus, po
Description: The compounds of the present invention may be tested for in vivo anticonvulsant activity after i.v., p.o. or i.p. injection using a number of anticonvulsant tests in mice, including the maximum electroshock seizure test (MES). Maximum electroshock seizures were induced in male NSA mice weighing between 15-20 g and male Sprague-Dawley rats weighing between 200-225 g by application of current (50 mA, 60 pulses/sec, 0.8 msec pulse width, 1 sec duration, D.C., mice; 99 mA, 125 pulses/sec, 0.8 msec pulse width, 2 sec duration, D.C., rats) using a Ugo Basile ECT device (Model 7801). Mice were restrained by gripping the loose skin on their dorsal surface and saline-coated corneal electrodes were held lightly against the two corneae. Rats were allowed free movement on the bench top and ear-clip electrodes were used. […] A tonic seizure was defined as a hindlimb extension in excess of 90 degrees from the plane of the body. Results were treated in a quantal manner.
The ability of 3-[4-(2,4-difluorophenoxy)phenyl]-1H-pyrazole-1-carboxamide to block maximal electroshock-induced seizures (MES) was determined as described earlier.
3-[4-(2,4-Difluorophenoxy)phenyl]-1H-pyrazole-1-carboxamide was administered p.o. to mice 30 minutes before the test procedure.
The following compounds in Table 1 were tested in MES as described for 3-[4-(2,4-difluorophenoxy)phenyl]-1H-pyrazole-1-carboxamide: […]

[3] = molecular target: rBIIA isoform of Na+ channels (Rattus norvegicus, UniProt P04775); test: Electrophysiological Assay 2: whole-cell patch-clamp of Na+ currents in HEK-293 cells expressing rBIIA; format: cell-based; details: for Ki: HEK-293 cells stably expressing rBIIA, concentration that produces half maximal inhibition
Description: Cell preparation: HEK-293 (NaIIA-B2) cell line stably expressing the rBIIA isoform of Na^+ channels was established in-house. The cells were cultured using standard techniques, as described previously (Verdoorn, T. A, et al., Neuron 4:919-928 (1990)). For electrophysiology, cells were plated onto poly-D-lysine pre-coated Cellware 35 mm Petri dishes (BIOCOAT, Becton Dickinson) at a density of ˜10^4 cells/dish on the day of re-seeding from confluent cultures. Our experience has been that cells are suitable for recordings for 2-3 days after plating.
Patch-clamp recordings of voltage-sensitive Na^+ currents. Whole-cell voltage-clamp recordings were made using conventional patch-clamp techniques (Hamill et al., Pfluegers Arch. 391:85-100 (1981)) with an Axopatch 200A amplifier (Axon Instruments, Foster City, Calif.). The recording chamber was continuously superfused with the external solution (150 mM NaCl, 5.4 mM KCl, 1.8 mM CaCl2, 1 mM MgCl2, 10 mM HEPES, 10 mM glucose, pH7.4 adjusted with NaOH, osmolality ˜320 mmol/kg) at a speed of about 1 mL/min. Recording pipettes were pulled from the thick-walled capillaries (WPI, Sarasota, Fla.) and fire-polished. The pipette resistances ranged from 1 to 3 MΩ when the pipettes were filled with internal solution containing (in mM): 130 CsF, 20 NaCl, 2 MgCl2, 10 EGTA, 10 HEPES, pH adjusted to 7.4 with CsOH, osmolality ˜310 mmol/kg. Drugs and intervening wash-outs were applied through a linear array of flow pipes (Drummond Microcaps, 2 μL, 64-mm length). Compounds are dissolved in dimethylsulfoxide (DMSO) to make a 30 mM stock solution, which was subsequently diluted into the external solution to give final concentrations of 0.1-100 μM. At the highest (1%) concentration, DMSO inhibited the size of Na^+ current only slightly. Currents were recorded at room temperature (22-25° C.), filtered at 3 kHz with an active 8-pole Bessel filter (Frequency Devices, Haverhill, Mass.), digitized at 10-50 μs intervals, and stored using Digidata 1200 analog/digital interface with Pclamp6/Clampex software (Axon Instruments). Series resistance was cancelled typically by ˜75% when necessary.
The following voltage pulse protocols were used to assess the potency and kinetics of inhibition of the Na^+ channels by the compounds (FIG. 1). [drawing 33]
FIG. 1. Voltage pulse protocols. A. IV-curves. C. Steady-state inactivation. B. Repriming kinetics. D. Time course of binding.
Current-voltage relationship (IV-curve), protocol A, was used to report the voltage at which the maximal inward Na^+ current is achieved. This voltage was used throughout the experiment as testing voltage, Vt. The steady-state inactivation (or, availability) curve, protocol C, was used to get the voltage at which almost complete (≧95%) inactivation of Na^+ channels occurs; it served as voltage for conditioning prepulse, Vc, throughout the experiment. Protocol B reports how fast the channels recover from inactivation at hyperpolarized voltages. This permitted us to set up the duration of the hyperpolarization gap which is used in measurement of the kinetics of binding of compounds to inactivated Na^+ channels (protocol D). Channel repriming under control conditions was fast (≧90% recovery during first 5-10 ms). If a drug substantially retards the repriming process then it becomes possible (protocol D) to accurately measure the kinetics of binding of the inhibitor to inactivated channels as well as the steady-state affinity (k+ and Ki). To estimate k+ values the reduction in peak currents in successive trials with varying pre-pulse duration was plotted as a function of pre-pulse duration and the time constant (τ) measured by mono-exponential fit. A plot of 1/τ as a function of antagonist concentration then allowed calculating of the macroscopic binding rates of the antagonists. To determine Ki values the partial inhibition curves measured by fractional responses in steady-state were fitted with the logistic equation: […]

Row | Ki [1] [nM] | Compound | ED50 [2] [mg/kg] | also measured
1 | 9 | 1-[3-[4-(4-Nitrophenoxy)phenyl]-1H-pyrazolyl]ethanone | – | –
2 | – | CS(=O)(=O)NCCn1nccc1-c1ccc(Oc2ccc(F)cc2)cc1 [1-[2-(Methanesulfonylamino)ethyl]-5-[4-(4-fluorophenoxy)phenyl]-1H-pyrazole] | 7.5 | –
3 | – | CC(=O)N(C)n1nccc1-c1ccc(Oc2ccc(F)cc2)cc1 [2-(N-methylacetamido)-3-[4-(4-fluorophenoxy)phenyl]-2H-pyrazole] | 2.9 | –
4 | – | Fc1ccc(Oc2ccc(-c3ncc[nH]3)cc2)cc1 [2-[4-(4-Fluorophenoxy)phenyl]-1H-imidazole] | – | Ki [3]: 1100 nM
5 | – | NC(=O)c1coc(-c2ccc(Oc3ccc(F)cc3)cc2)n1 [2-[4-(4-Fluorophenoxy)phenyl]oxazole-4-carboxamide] | – | Ki [3]: 1310 nM
6 | – | CN1CCN(C(=O)Cn2nccc2-c2ccc(Oc3ccc(F)cc3)cc2)CC1 [2-{5-[4-(4-Fluorophenoxy)phenyl]-pyrazol-1-yl}-1-(4-methyl)piperazine-1-yl-ethanone] | – | MES p.o. ED50 [2]: 10 mg/kg
7 | 15 | NC(=O)n1ccc(-c2ccc(Oc3ccccc3)cc2)n1 [3-(4-phenoxyphenyl)-1H-pyrazole-1-carboxamide] | – | –
8 | – | NC(=O)n1ccc(-c2ccc(Oc3ccc(F)cc3)c(F)c2)n1 [3-[3-fluoro-4-(4-fluorophenoxy)phenyl]-1H-pyrazole-1-carboxamide] | 4.5 | –
9 | 10 | NC(=O)n1ccc(-c2ccc(Oc3ccc(F)cc3F)cc2)n1 [3-[4-(2,4-Difluorophenoxy)phenyl]-1H-pyrazole-1-carboxamide] | 3.5 | –
10 | 8 | NC(=O)n1ccc(-c2ccc(Oc3ccc(F)cc3)cc2)n1 [3-[4-(4-Fluorophenoxy)phenyl]-1H-pyrazole-1-carboxamide] | 7 | inhibition of voltage-gated sodium currents ([1]; HEK-293 cells stably expressing hSkM1 sodium channels): dose-dependent inhibition; Kd ([1]; HEK-293 cells stably expressing hSkM1 sodium channels, read-out: apparent antagonist dissociation constant (Kd) for inactivated sodium channels): ~8 nM; potency towards Na+ channels in their resting states ([1]; hSkM1, blocking effect highly sensitive to the holding voltage): weak potency
11 | – | CN(C)C(=O)n1ccc(-c2ccc(Oc3ccc(F)cc3)cc2)n1 [3-[4-(4-Fluorophenoxy)phenyl]-1H-pyrazole-1-carboxylic Acid Dimethylamide] | 8.6 | –
12 | – | Fc1ccc(Oc2ccc(-c3cc[nH]n3)cc2)cc1 [3-[4-(4-Fluorophenoxy)phenyl]-1H-pyrazole] | 8 | –
13 | 11 | NC(=O)n1ccc(-c2ccc(Oc3ccc([N+](=O)[O-])cc3)cc2)n1 [3-[4-(4-Nitrophenoxy)phenyl]-1H-pyrazole-1-carboxamide] | 2 | –
14 | – | Cc1nc(-c2ccc(Oc3ccc(F)cc3F)cc2)c[nH]1 [4-[4-(2,4-Difluorophenoxy)phenyl]-2-methyl]-1H-imidazole] | – | MES p.o. ED50 [2]: 7.5 mg/kg
15 | – | Cl.Fc1ccc(Oc2ccc(-c3c[nH]cn3)cc2F)cc1 [4-[4-(4-Fluorophenoxy)-3-fluorophenyl]-1H-imidazole, hydrochloride salt] | – | Ki [3]: 250 nM; inhibition of voltage-gated sodium currents ([3]; HEK-293 cells stably expressing the rBIIA isoform of Na+ channels): dose-dependent inhibition; Kd ([3]; HEK-293 cells stably expressing the rBIIA isoform of Na+ channels, read-out: apparent antagonist dissociation constant (Kd) for inactivated sodium channels): 250 nM; potency towards Na+ channels in their resting states ([3]; rBIIA, blocking effect highly sensitive to the holding voltage): weak potency
16 | – | Fc1ccc(Oc2ccc(-c3c[nH]cn3)cc2F)cc1 [4-[4-(4-Fluorophenoxy)-3-fluorophenyl]-1H-imidazole] | 3.2 | –
17 | 20 | NC(=O)c1nc(-c2ccc(Oc3ccc(F)cc3)c(F)c2)cs1 [4-[4-(4-Fluorophenoxy)-3-fluorophenyl]-thiazole-2-carboxamide] | – | –
18 | – | Fc1ccc(Oc2ccc(-c3c[nH]cn3)cc2)cc1 [4-[4-(4-Fluorophenoxy)phenyl]-1H-imidazole] | 4.2 | –
19 | – | NC(=O)c1ccc(-c2ccc(Oc3ccc(F)cc3)cc2)[nH]1 [5-[4-(4-Fluorophenoxy)phenyl]-pyrrole-2-carboxamide] | 10 | –
20 | 110 | O=[N+]([O-])c1ccc(Oc2ccc(-c3cc[nH]n3)cc2)cc1 [5-[4-(4-nitrophenoxy)phenyl]-1H-pyrazole, 3-[4-(4-nitrophenoxy)phenyl]-1H-pyrazole] | – | –
21 | – | COC(=O)c1ccc(-c2ccc(Oc3ccc(F)cc3)cc2)[nH]1 [Methyl 5-[4-(4-Fluorophenoxy)phenyl]pyrrole-2-carboxylate] | 6 | –
